Earlier results in patent US20140056863A1, “NUTRITIONAL COMPOSITIONS HAVING ALPHA-HICA AND EICOSAPENTAENOIC ACID” (Nestec S.A., priority 2011, published 2014).

Columns and labels:
[1] = test system: intestinal mammalian target of rapamycin (mTOR); settings: piglet stressed with LPS; leading to increased protein synthesis and anti-inflammatory responses
[2] = test system: malnourished aged animals

| SMILES | phosphorylation of intestinal mTOR [1] | anabolic effect [2] |
| --- | --- | --- |
| O=C(O)CCC(=O)C(=O)O [AKG, α-ketoglutarate] | increased phosphorylation |  |
| NC(=O)NCCC[C@H](N)C(=O)O [Citrulline, citrulline] |  | anabolic effect |
